Laboratory results: patent publication US20220362182A1, “METHODS FOR REVERSING HEPATIC STEATOSIS” (BRIGHTSEED, INC., priority 2020, published 2022)
“Also recorded” adds a separate entry of the source.

Columns and labels:
[1] = test system: dihydroceramides; assay: lipidomic analysis of ceramides and dihydroceramides in T6PNE cells; type: cell-based, human; conditions: 2 days after treatment
Description: Ceramides and dihydroceramides were measured in the UCSD Lipidomics Core Facility as previously described (Quehenberger et al.). Briefly, samples were extracted using the butanol: methanol (BUME) method. The lipid layer was collected and run on a Thermo-Vanquish UPLC (Thermo Scientific) with a Cortecs T3 (C18), 2.1 mm×150 mm; 1.8 uT3 column and a binary solvent system. Mass spectrometry employed a Thermo Q Exactive instrument with MS/MS data dependent acquisition scan mode and LipidSearch software (Thermo Fisher Scientific).

[2] = test system: CYP26A1 mRNA; assay: hepatic CYP26A1 mRNA in DIO mice; type: in vivo; conditions: mouse liver
Description: (§1) Quantitative PCR (Q-PCR) from in vitro cell culture experiments used total RNA purified using RNeasy Kits (Qiagen). For liver tissue samples, total RNA was isolated using Trizol (Invitrogen) and prepared for RNAseq (mouse liver DMSO and NCT, N=3). cDNA was amplified using 3 μg of total RNA using qScript cDNA SuperMix (Quanta BioSciences, Beverly, Mass., USA). QPCR analysis was performed using SYBR® Select Master Mix (Applied Biosystems) and ABI 7900HT (Applied Biosystems, Thermo Fisher Scientific). The Ct values of mRNA expression were then normalized to the 18 s rRNA values and are expressed as fold change over samples from mice fed normal chow for in vivo experiments or DMSO controls for cell culture experiments.
(§2) For dose response experiments, mice were injected intraperitoneally with 10% DMSO as vehicle control or 4 different doses of NCT (30, 60, 120 and 240 mg/kg of body weight) dissolved in 10% DMSO. Mice received 2 doses per day with a 5 h interval between injections for 3 days. To test the effect of NCT (Sundia MediTech Company, Ltd., Custom synthesis), 200 mg/kg was injected IP bid for 14 days. On day 15, mice received a final dose of NCT followed by IP injection with 3 g/kg dextrose. One h later, blood samples were collected and mice were euthanized using pentobarbital. Total mouse, liver and epididymal fat pad weights were measured. […]

[3] = test system: p62; assay: p62 Western blot in T6PNE cells; type: cell-based, human; conditions: NCT 10 μM, RA 10 μM, fenretinide
Description: Whole-cell extracts were prepared by incubation in RIPA buffer (Invitrogen) containing protease inhibitors (Calbiochem, San Diego, Calif.). Protein ([…]) was separated on 12% or 16% Tri-Glycine gels (Invitrogen) and transferred to Immobilon P membrane (0.2 μm pore, Millipore). After 1 h in phosphate-buffered saline-Tween (PBST) with 3% milk, membrane was incubated with antibodies to HNF4α (mouse, Novus, 1:1000), LC3B (rabbit, Novus, 1:500), p62 (SQSTM1, mouse, Santa Cruz, 1:1000) or β-actin (mouse, Santa Cruz, 1:2000), followed by secondary antibody conjugated to horseradish peroxidase (1:5000, Jackson Immune).

[4] = molecular target: T1, HNF4α (Mus musculus, UniProt P49698); assay: hepatic HNF4α expression in DIO mice; type: in vivo; conditions: 200 mg/kg bid IP, 14 days; for hepatic HNF4α protein (nuclear staining): 200 mg/kg
T1 construct: from tissue; host or cells: liver of C57BL/6 J DIO male mice
T1 sequence (P49698 1-474): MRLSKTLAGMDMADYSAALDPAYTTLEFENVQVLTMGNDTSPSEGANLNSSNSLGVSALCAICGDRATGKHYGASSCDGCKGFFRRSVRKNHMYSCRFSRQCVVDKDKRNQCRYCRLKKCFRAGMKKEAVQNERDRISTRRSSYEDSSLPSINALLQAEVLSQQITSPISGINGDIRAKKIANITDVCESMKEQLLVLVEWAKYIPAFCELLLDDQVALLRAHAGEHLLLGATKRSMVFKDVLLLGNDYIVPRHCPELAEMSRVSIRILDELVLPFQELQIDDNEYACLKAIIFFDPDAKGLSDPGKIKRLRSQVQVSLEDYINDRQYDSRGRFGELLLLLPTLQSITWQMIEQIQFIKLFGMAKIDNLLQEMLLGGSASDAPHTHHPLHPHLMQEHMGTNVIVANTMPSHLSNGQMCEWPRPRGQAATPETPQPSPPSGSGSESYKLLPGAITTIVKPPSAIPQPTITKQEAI
Description: as §1
as §2, with “measured. Dissected liver samples were washed in cold PBS, cut into small pieces and distributed for analyses. For RNA isolation and ELISA, liver samples were snap frozen using liquid nitrogen and stored at −80° C.” for “measured.”
Frozen liver sections were permeabilized using 0.3% Triton-X and incubated in antigen retrieval solution (Antigen retrieval citrate, Biogenex) at sub boiling temperature for 10 min. […] Slides were mounted using fluorescence mounting medium and images were obtained at 40× magnification using an Olympus IX71 fluorescence microscope. Fluorescence intensity of HNF4α-stained nuclei was calculated using MetaMorph TL software (version 7.6.5.0, Olympus).

[5] = listed as N-trans-caffeoyltyramine

O=C(/C=C/c1ccc(O)c(O)c1)NCCc1ccc(O)cc1 [NCT, N-trans-caffeoyltyramine]
dihydroceramide production [1]: multiple dihydroceramides were increased; also recorded: induced multiple identical dihydroceramides | dihydroceramide production [1, 5]: Dihydroceramide was induced | hepatic CYP26A1 mRNA [2]: induced CYP26a1 | p62 protein expression normalized to actin [3]: induced increases | hepatic HNF4α mRNA [4]: reversed the loss | hepatic HNF4α protein (nuclear staining) [4]: reversed the loss of HNF4α protein; also recorded: recovery of normal hepatic HNF4α expression | hepatic HNF4α protein (nuclear staining) [4, 5]: reversed that reduction; also recorded: increased the HNF4a staining
